Reference: ChEMBL document CHEMBL4418486, “Heterocyclic compounds for the inhibition of pask” (2015)

Experiment: Half life in Sprague-Dawley rat at 10 mg/kg, po measured after 0.083 to 24 hrs post dose by LC/MS/MS analysis
Assay type: ADME, organism-based
Settings: in vivo

CCn1ncc2cc(-c3cc(=O)n4ncc(-c5nc(C)no5)c4[nH]3)ccc21
half-life: 3.55 h
